Measured values as given in publication PMC8666671, “Fine-tuning spermidine binding modes in the putrescine binding protein PotF” (The Journal of Biological Chemistry, 2021).
Numbering of substitutions follows the chain as printed. Where “and” joins values, the source holds several entries; their conditions need not be identical. Equal entries are not always repeated.

Experiments:
[1] = biological target: T1, PotF_Prox (Escherichia coli, UniProt P31133, D247S/D39E/S38T); assay: ITC, PotF_Prox (S38T, D39E, D247S); format: binding; conditions: 293 K, 50 mM Tris pH 8, 300 mM NaCl, biological triplicates
T1 construct: without the N-terminal signal peptide; made in house; host or cells: E. coli BL21 (DE3)
T1 sequence (P31133 27-370 S38T/D39E/D247S): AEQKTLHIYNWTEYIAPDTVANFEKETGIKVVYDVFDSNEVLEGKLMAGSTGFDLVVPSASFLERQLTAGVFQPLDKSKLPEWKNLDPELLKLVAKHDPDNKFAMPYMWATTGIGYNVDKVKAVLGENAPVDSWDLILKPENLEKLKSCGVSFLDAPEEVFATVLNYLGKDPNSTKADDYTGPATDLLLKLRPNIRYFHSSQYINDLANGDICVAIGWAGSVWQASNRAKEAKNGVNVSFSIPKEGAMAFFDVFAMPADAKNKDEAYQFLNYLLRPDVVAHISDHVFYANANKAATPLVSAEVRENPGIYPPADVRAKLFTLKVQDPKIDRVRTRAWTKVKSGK
Procedure: (§1) Ligands were always freshly prepared in the exact same buffer as was used for the size exclusion run. Samples were degassed, and temperature was equilibrated using a degassing station (TA Instruments). About 400 μl protein sample of different concentrations (Table S5) depending on affinity was transferred into the sample cell of a nanoITC (TA Instruments), and 50 μl of about tenfold concentrated ligand solution was loaded into the injection needle. Multiple injection measurements were carried out at 293 K, 300 rpm stirring rate, and 250 s spacings between each 2 μl injection. The heat quantity past injection was determined by integration of the measured peaks. Every protein–ligand combination was measured as biological triplicate. Subtraction of heat of dilution measurements, peak integration, and one site binding fits were done with NanoAnalyze (TA Instruments). Reported errors are the errors between fits of the measured triplicates.

[2] = biological target: T2, PotF/D (Escherichia coli, UniProt P31133, A182D/D247S/D39E/F276W/L348Q/S38T/S87Y); assay: ITC, PotF/D (PotF_SPD; seven PotD binding pocket residues grafted onto PotF); conditions: 293 K
T2 construct: without the N-terminal signal peptide; made in house; host or cells: E. coli BL21 (DE3)
T2 sequence (P31133 27-370 S38T/D39E/S87Y/A182D/D247S/F276W/L348Q): T1 sequence (P31133 27-370 S38T/D39E/D247S) with S61Y, A156D, F250W, L322Q
Procedure: as §1

[3] = biological target: T3, PotF/D–E39D–Y87S (Escherichia coli, UniProt P31133, A182D/D247S/F276W/L348Q/S38T); assay: ITC, PotF/D–E39D–Y87S; format: binding; conditions: 293 K
T3 construct: without the N-terminal signal peptide; made in house; host or cells: E. coli BL21 (DE3)
T3 sequence (P31133 27-370 S38T/A182D/D247S/F276W/L348Q): T1 sequence (P31133 27-370 S38T/D39E/D247S) with E13D, A156D, F250W, L322Q
Procedure: as §1

[4] = biological target: T4, PotF/D–E39D–F88A (Escherichia coli, UniProt P31133, A182D/D247S/F276W/F88A/L348Q/S38T/S87Y); assay: ITC, PotF/D–E39D–F88A; format: binding; conditions: 293 K
T4 construct: without the N-terminal signal peptide; made in house; host or cells: E. coli BL21 (DE3)
T4 sequence (P31133 27-370 S38T/S87Y/F88A/A182D/D247S/F276W/L348Q): T1 sequence (P31133 27-370 S38T/D39E/D247S) with E13D, S61Y, F62A, A156D, F250W, L322Q
Procedure: as §1

[5] = biological target: T5, PotF/D–E39D–Y87S–F88Y (Escherichia coli, UniProt P31133, A182D/D247S/F276W/F88Y/L348Q/S38T); assay: ITC, PotF/D–E39D–Y87S–F88Y; format: binding; conditions: 293 K
T5 construct: without the N-terminal signal peptide; made in house; host or cells: E. coli BL21 (DE3)
T5 sequence (P31133 27-370 S38T/F88Y/A182D/D247S/F276W/L348Q): T1 sequence (P31133 27-370 S38T/D39E/D247S) with E13D, F62Y, A156D, F250W, L322Q
Procedure: as §1

[6] = ITC, 50 mM Tris pH 8, 300 mM NaCl, biological triplicates

NCCCCN [PUT, putrescine]
KD [1]: abolishes association

NCCCCNCCCN [SPD, spermidine]
n ([2]; ITC binding stoichiometry): 0.94 ± 0.02
ΔG ([2]; ITC): -5.94 ± 0.04 kcal/mol
ΔH ([2]; ITC): -9.30 ± 0.20 kcal/mol
−TΔS ([2]; ITC): 3.36 ± 0.24 kcal/mol
Kd [2, 6]: ~37 µM and 37.3 µM
n ([3]; ITC binding stoichiometry): 0.98 ± 0.01
ΔG ([3]; ITC): -6.74 ± 0.06 kcal/mol
ΔH ([3]; ITC): -6.56 ± 0.13 kcal/mol
−TΔS ([3]; ITC): -0.18 ± 0.19 kcal/mol
Kd [3, 6]: 9.4 µM and 9.44 µM
n ([4]; ITC binding stoichiometry): 0.98 ± 0.03
ΔG ([4]; ITC): -6.73 ± 0.03 kcal/mol
ΔH ([4]; ITC): -12.22 ± 0.35 kcal/mol
−TΔS ([4]; ITC): 5.49 ± 0.36 kcal/mol
Kd [4, 6]: 9.6 ± 0.54 µM
n ([5]; ITC binding stoichiometry): 0.99 ± 0.02
ΔG ([5]; ITC): -7.09 ± 0.15 kcal/mol
ΔH ([5]; ITC): -7.81 ± 0.21 kcal/mol
−TΔS ([5]; ITC): 0.71 ± 0.32 kcal/mol
Kd [5, 6]: ~5.3 µM and 5.3 µM and 5.32 µM
